Results reported in ChEMBL document CHEMBL5512620, “Design and synthesis of forsythin derivatives as anti-inflammatory agents for acute lung injury” (Eur J Med Chem, 2024).

System: RAW264.7
Experiment: Cytotoxicity activity mouse RAW264.7 cells assessed as effect on cell viability at 25 uM incubated for 24 hrs by MTT assay
Type: toxicity, cell-based
Conditions: raw264.7, 24 h

For `COc1ccc([C@@H]2OC[C@H]3[C@@H]2CO[C@@H]3c2ccc(O[C@H]3O[C@H](COC(=O)[C@H](CC(C)C)NC(=O)OC(C)(C)C)[C@@H](O)[C@H](O)[C@H]3O)c(OC)c2)cc1OC`, which Activity is on record?
The Activity was “Non-Toxic”.

`COc1ccc([C@@H]2OC[C@H]3[C@@H]2CO[C@@H]3c2ccc(O[C@H]3O[C@H](COC(=O)/C=C/c4ccccc4)[C@@H](O)[C@H](O)[C@H]3O)c(OC)c2)cc1OC` was tested. Which Activity did it give?
The Activity was “Non-Toxic”.

For `COc1ccc([C@H]2OC[C@@H]3[C@H]2CO[C@@H]3c2ccc(O[C@@H]3O[C@@H](COC(=O)c4nccc5ccccc45)[C@H](O)[C@@H](O)[C@@H]3O)c(OC)c2)cc1OC` (stereo in doubt), which Activity is on record?
Its Activity is “Non-Toxic”.

With `COc1ccc([C@@H]2OC[C@H]3[C@@H]2CO[C@@H]3c2ccc(O[C@H]3O[C@H](COC(=O)[C@H](CCSC)NC(=O)OC(C)(C)C)[C@@H](O)[C@H](O)[C@H]3O)c(OC)c2)cc1OC` as the compound, how does the Activity read?
The Activity was “Non-Toxic”.

With `COc1ccc([C@@H]2OC[C@H]3[C@@H]2CO[C@@H]3c2ccc(O[C@H]3O[C@H](COC(=O)c4cn(-c5ccc(C)cc5)nn4)[C@@H](O)[C@H](O)[C@H]3O)c(OC)c2)cc1OC` as the compound, how does the Activity read?
The Activity was “Non-Toxic”.

Which Activity does the source give for `COc1ccc([C@@H]2OC[C@H]3[C@@H]2CO[C@@H]3c2ccc(O[C@H]3O[C@H](COC(=O)c4cn(-c5ccc(Cl)cc5)nn4)[C@@H](O)[C@H](O)[C@H]3O)c(OC)c2)cc1OC` here?
Its Activity is “Non-Toxic”.

`COc1ccc([C@H]2OC[C@@H]3[C@H]2CO[C@@H]3c2ccc(O[C@@H]3O[C@@H](COC(=O)c4cccc5ncccc45)[C@H](O)[C@@H](O)[C@@H]3O)c(OC)c2)cc1OC` (stereo in doubt) was tested. Which Activity did it give?
The Activity was “Non-Toxic”.

For `COc1ccc([C@@H]2OC[C@H]3[C@@H]2CO[C@@H]3c2ccc(O[C@H]3O[C@H](COC(=O)[C@H](Cc4c[nH]c5ccccc45)NC(=O)OC(C)(C)C)[C@@H](O)[C@H](O)[C@H]3O)c(OC)c2)cc1OC`, which Activity is on record?
Its Activity is “Non-Toxic”.
